In brackets after ≈: the same amount, converted by molar mass. Marks after values point to notes of the source that are not given here. Square brackets hold non-standard residues; d marks the D form. Ends that are not written are not given here. Peptide text beside a SMILES is read from it.
Experiments:
Type in all cases: cell-based
sheep red blood cells = assay: Hemolytic activity assay; conditions: for HC50 (hemolytic concentration 50): concentration inducing 50% hemolysis of sRBCs, nonlinear regression, unit (µM); for percent hemolysis: 2% sRBCs in PBS, 37 °C, 1 h, OD540, triplicate mean; for concentration required for the initiation of hemolysis: sRBCs, 60 min, 256–1 µM tested
Method: The peptide toxicity to the mammalian system was screened based on the hemolytic test by measuring the hemoglobin released from ruptured red blood cells (RBCs). In this study, sheep RBCs (sRBCs) were employed. They were thrice washed and prepared as a suspension in phosphate-buffered saline (PBS, Oxoid). A suspension of 2% sRBCs was incubated with 2-fold serial dilutions of peptide (final concentrations; 256 to 1 µM in a total volume of 200 µL) at 37 °C for 1 h. The solutions of 0.1% (final concentration) Triton X-100 (Sigma-Aldrich) and PBS containing the peptide solvent were used instead of the peptides as the controls of hemolysis at 100% and 0%, respectively. Thereafter, the post-incubated suspensions were centrifuged (1000× g, 3 min) to pelletize residual sRBCs. The supernatants were then transferred into a flat-bottom PS 96-well plate and were measured the absorbance at 540 nm (OD540) by a microplate reader. The test was conducted in triplicate and the mean OD540 was used to calculate the hemolysis (%) as; ((OD540 (peptide) − OD540 (PBS + peptide solvent))/(OD540 (0.1% Triton X-100) − OD540 (PBS + peptide solvent))) × 100. The hemolytic concentration 50 (HC50), a concentration inducing 50% hemolysis, was determined.
The GraphPad Prism version 7.00 (GraphPad Software, La Jolla, CA, USA) was applied for all statistical analyses and data visualizations. Replicate quantitative results were calculated and shown as mean ± SD, unless otherwise specified. The HC50 values were determined using nonlinear regression analysis. The paired t-test and repeated measures one-way ANOVA with Tukey’s multiple comparison test were applied to compare between 2 groups and among 3 or more groups, respectively. The comparisons were considered as a statistically significant difference when a p-value < 0.05.

[1] = test system: clinical Salmonella isolates; assay: MBC, drop plate method, and MBC/MIC mode of action; conditions: for GM of MBC: geometric mean over 12 clinical Salmonella isolates; for MBC: drop plate on MHA from MIC plate, 37 °C, 18 h, thrice
Method: (§1) All 12 isolates of Salmonella used in this study were clinical isolates and anonymous left-overs from laboratory diagnoses. They were maintained in a 20% glycerol (Sigma-Aldrich) stock at −80 °C and further cultured on Mueller-Hinton agar (MHA, Oxoid, Hampshire, UK) at 37 °C for 18 h to obtain single colonies for antimicrobial assays. This study was approved by the Ethics Committee of the Faculty of Tropical Medicine (Mahidol University, Bangkok, Thailand; MUTM-EXMPT 2017-007).
The plate derived from the MIC assay was immediately tested for the MBC using a drop plate method. A volume of 10 µL of the culture from individual wells at MIC, 2MIC, and 4MIC was dropped on MHA plates. […] The experiment was thrice performed.
In order to determine whether the peptides have bacteriostatic or bactericidal activity, a ratio of MBC to MIC (MBC/MIC) was applied. The ratio >4 was indicative of bacteriostatic peptide, and ≤4 was inferred as bactericidal peptide.

[2] = test system: clinical Salmonella isolates; assay: MIC, broth microdilution; conditions: MHB, 5 × 10^5 CFU/mL, 37 °C, 18 h, duplicate
Method: as §1
MIC was determined using the broth microdilution method described by Hancock with some modifications. Briefly, bacterial colonies grown from the MHA were prepared in MHB (Oxoid) as a 0.5 McFarland suspension (which is equal to 1 × 10^8 CFU/mL), and was further 200-fold diluted by the MHB (5 × 10^5 CFU/mL). The bacterial suspension (50 µL) was mixed with 2-fold serial dilutions of peptide (5.5 µL) achieving final concentrations of 256 to 1 µM using a round-bottom polypropylene (PP) 96-well plate (Greiner Bio-One). The plate was incubated at 37 °C for 18 h including incubating peptide free-bacteria as positive growth control, and MHB as negative growth control. After the incubation, the lowest concentration with no visible growth was defined as a MIC value. The assay was performed in a duplicate manner.

[3] = isolate 5 (Enteritidis, blood; resistant AMP, SXT, KZ)
[4] = isolate 7 (Typhimurium, blood; resistant AMP, CN, TE, NA, SXT)
[5] = isolate 11 (I 1,4:i:-, blood; resistant AMP, TE, NA, SXT, C)
[6] = isolate 18 (Stanley, urine; resistant TE, SXT, C)
[7] = isolate 26 (Typhimurium, urine; resistant TZP, TE, NA)
[8] = isolate 27 (Typhimurium, stool; resistant AMP, TE, NA, SXT, CIP)
[9] = isolate 55 (Typhimurium, blood; resistant AMP, SXT, C, TE)
[10] = isolate 61 (Enteritidis, blood; resistant AMP, TE, NA, SXT)
[11] = isolate 69 (Typhimurium, stool; resistant AMP)
[12] = isolate 76 (Enteritidis, CSF; resistant NA)
[13] = isolate 78 (Enteritidis, blood; resistant TE, CIP, NA, SXT)
[14] = isolate 107 (Typhimurium, stool; susceptible)

Molecule: CC[C@@H](C)[C@@H](NC(=O)[C@H](N)Cc1ccccc1)C(=O)N[C@H](CCCNC(=N)N)C(=O)N[C@H](CCCNC(=N)N)C(=O)N[C@@H](C(=O)N[C@H](C)C(=O)N[C@H](CCCNC(=N)N)C(=O)N[C@H](CC(C)C)C(=O)N[C@H](CC(C)C)C(=O)N[C@H](CCCNC(=N)N)C(=O)N[C@H](CCCNC(=N)N)C(=O)N[C@@H](C(=O)N[C@H](Cc1ccccc1)C(N)=O)[C@H](C)CC)[C@H](C)CC [dKn2-5R-NH2] (H-[dF][dI][dR][dR][dI][dA][dR][dL][dL][dR][dR][dI][dF]-NH2)
- HC50 (hemolytic concentration 50) (sheep red blood cells): 199.20 µM
- percent hemolysis (sheep red blood cells; peptide 1 µM): 0%
- percent hemolysis (sheep red blood cells; peptide 2 µM): 0%
- percent hemolysis (sheep red blood cells; peptide 4 µM): 0.4 * %
- percent hemolysis (sheep red blood cells; peptide 8 µM): 0.5 * %
- percent hemolysis (sheep red blood cells; peptide 16 µM): 0.9%
- percent hemolysis (sheep red blood cells; peptide 32 µM): 2.5%
- percent hemolysis (sheep red blood cells; peptide 64 µM): 8.7%
- percent hemolysis (sheep red blood cells; peptide 128 µM): 23.6%
- percent hemolysis (sheep red blood cells; peptide 256 µM): 65.6%
- concentration required for the initiation of hemolysis (sheep red blood cells): 4000 nM
- GM of MBC [1]: 5.99 µM
- MBC ([1]; isolate 5 (Enteritidis)): 8 µM (≈ 13.8 µg/mL)
- MBC ([1]; isolate 7 (Typhimurium)): 8 µM (≈ 13.8 µg/mL)
- MBC ([1]; isolate 11 (I 1,4:i:-)): 8 µM (≈ 13.8 µg/mL)
- MBC ([1]; isolate 18 (Stanley)): 8 µM (≈ 13.8 µg/mL)
- MBC ([1]; isolate 26 (Typhimurium)): 8 µM (≈ 13.8 µg/mL)
- MBC ([1]; isolate 27 (Typhimurium)): 4 µM (≈ 6.92 µg/mL)
- MBC ([1]; isolate 55 (Typhimurium)): 4 µM (≈ 6.92 µg/mL)
- MBC ([1]; isolate 61 (Enteritidis)): 4 µM (≈ 6.92 µg/mL)
- MBC ([1]; isolate 69 (Typhimurium)): 4 µM (≈ 6.92 µg/mL)
- MBC ([1]; isolate 76 (Enteritidis)): 8 µM (≈ 13.8 µg/mL)
- MBC ([1]; isolate 78 (Enteritidis)): 8 µM (≈ 13.8 µg/mL)
- MBC ([1]; isolate 107 (Typhimurium)): 4 µM (≈ 6.92 µg/mL)
- MIC [2, 3]: 8 µM (≈ 13.8 µg/mL)
- MIC [2, 4]: 8 µM (≈ 13.8 µg/mL)
- MIC [2, 5]: 8 µM (≈ 13.8 µg/mL)
- MIC [2, 6]: 8 µM (≈ 13.8 µg/mL)
- MIC [2, 7]: 8 µM (≈ 13.8 µg/mL)
- MIC [2, 8]: 4 µM (≈ 6.92 µg/mL)
- MIC [2, 9]: 4 µM (≈ 6.92 µg/mL)
- MIC [2, 10]: 4 µM (≈ 6.92 µg/mL)
- MIC [2, 11]: 4 µM (≈ 6.92 µg/mL)
- MIC [2, 12]: 8 µM (≈ 13.8 µg/mL)
- MIC [2, 13]: 8 µM (≈ 13.8 µg/mL)
- MIC [2, 14]: 4 µM (≈ 6.92 µg/mL)

Molecule: FFFIRRIARLLRRIF-NH2 [2F-Kn2-5R-NH2]
- HC50 (hemolytic concentration 50) (sheep red blood cells): 5.60 µM
- percent hemolysis (sheep red blood cells; peptide 1 µM): 6.1%
- percent hemolysis (sheep red blood cells; peptide 2 µM): 15%
- percent hemolysis (sheep red blood cells; peptide 4 µM): 33.7 * %
- percent hemolysis (sheep red blood cells; peptide 8 µM): 61.6 * %
- percent hemolysis (sheep red blood cells; peptide 16 µM): 96.2%
- percent hemolysis (sheep red blood cells; peptide 32 µM): 97.6%
- percent hemolysis (sheep red blood cells; peptide 64 µM): 97.9%
- percent hemolysis (sheep red blood cells; peptide 128 µM): 99.8%
- percent hemolysis (sheep red blood cells; peptide 256 µM): 100%
- concentration required for the initiation of hemolysis (sheep red blood cells): 1000 nM
- GM of MBC [1]: 5.66 µM
- MBC ([1]; isolate 5 (Enteritidis)): 4 µM
- MBC ([1]; isolate 7 (Typhimurium)): 4 µM
- MBC ([1]; isolate 11 (I 1,4:i:-)): 4 µM
- MBC ([1]; isolate 18 (Stanley)): 8 µM
- MBC ([1]; isolate 26 (Typhimurium)): 8 µM
- MBC ([1]; isolate 27 (Typhimurium)): 8 µM
- MBC ([1]; isolate 55 (Typhimurium)): 8 µM
- MBC ([1]; isolate 61 (Enteritidis)): 4 µM
- MBC ([1]; isolate 69 (Typhimurium)): 4 µM
- MBC ([1]; isolate 76 (Enteritidis)): 8 µM
- MBC ([1]; isolate 78 (Enteritidis)): 8 µM
- MBC ([1]; isolate 107 (Typhimurium)): 4 µM
- MIC [2, 3]: 4 µM
- MIC [2, 4]: 4 µM
- MIC [2, 5]: 4 µM
- MIC [2, 6]: 8 µM
- MIC [2, 7]: 8 µM
- MIC [2, 8]: 8 µM
- MIC [2, 9]: 8 µM
- MIC [2, 10]: 4 µM
- MIC [2, 11]: 4 µM
- MIC [2, 12]: 8 µM
- MIC [2, 13]: 8 µM
- MIC [2, 14]: 4 µM

— PMC8348142, “Antimicrobial Peptide Modifications against Clinically Isolated Antibiotic-Resistant Salmonella” (Molecules, 2021)
